In patent publication US8012952B2, “Cationic 17 α-substituted-estradiol derivatives useful as anti-cancer agent” (Council of Scientific & Industrial Research, priority 2007, dated 2011):

What was measured:
T47D cells = experiment: MTT cell viability assay, T47D cells; conditions: Homo sapiens, read-out: in-vitro percent cell viability
Experimental: (§1) The in vitro cytotoxicities of the derivative A to various cancer and non-cancer cells across different molar concentrations (0.5 μM-50 μM) were performed. The cancer cells were chosen from various origins, such as breast cancer cells MCF-7 (primary carcinoma), T47D (ductal carcinoma), MDA-MB-468 (secondary, metastatic); cervical cancer cell Hela; lung cancer cell A549 (metastatic). […] In one set of experiments, the cells were treated at different concentrations of derivative A for 4 h, washed and kept in serum media for 6 days to observe cellular toxicity using MTT assay (FIGS. 1, 2, 4, 6A and 6B), except for one cell line where the assay was done after 4 days (FIG. 3). In another set of experiment, the cells were treated continuously for 48 h in presence of serum media and cellular toxicities were assayed promptly (FIG. 5).
(§2) Cells and Cell Culture. CHO (Chinese hamster ovary), COS-1 (African Green monkey kidney cells) HeLa (Human cervical carcinoma), MCF-7 (Human breast primary adenocarcinoma), T47D (Human breast ductal carcinoma), MDA-MB-468 (Human breast secondary adenocarcinoma), and A-549 (Human lung carcinoma) cell lines were procured from the National Centre for Cell Sciences (NCCS), Pune, India and were mycoplasma free. […] The cells were trypsinized, counted, subcultured in 96-well plates for viability studies. […]

Hela cells = experiment: MTT cell viability assay, Hela cells; conditions: Homo sapiens, read-out: in-vitro percent cell viability
Experimental: as §1, §2

MCF-7 cells = experiment: MTT cell viability assay, MCF-7 cells; conditions: Homo sapiens, MCF7, read-out: in-vitro percent cell viability
Experimental: as §1, §2

MDA-MB-468 cells = experiment: MTT cell viability assay, MDA-MB-468 cells; conditions: Homo sapiens, MDA-MB-468, read-out: in-vitro percent cell viability
Experimental: as §1, §2

Measured: viability at 50 µM

CCCCCCCC[N+](C)(CCCCCCCC)CCC[C@]1(O)CCC2C3CCc4cc(O)ccc4C3CC[C@@]21C (stereo partly drawn) [Derivative 1, 17α-[3-N,N-dioctyl(methyl)aminopropane]-17β-Estradiol]
2 to 10%: all assays above
